Data as given in PubChem BioAssay AID248 (DTP/NCI, 2004).
Where “and” joins values, the source holds several entries; their conditions need not be identical. Equal entries are not always repeated. Toxic doses and inconclusive results are not listed. Cut-off read from the data, not from the text of the source: active = T/C of 150% or more; inactive = T/C below 125%.

System: L1210 leukemia ip in BDF1 mice, survival T/C
Assay: NCI In Vivo Anticancer Drug Screen. Data for tumor model L1210 Leukemia (intraperitoneal) in B6D2F1 (BDF1) mice
Conditions: endpoint: mean survival time, higher = longer survival
Outline: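 Tumor cells were implanted, animals were treated, and survival was followed. The result divides the treated measurement by the vehicle-control measurement.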

[1] = dose: 100.0 mg/kg/injection, schedule: Q04DX003 (ip), vehicle: saline with Tween-80
[2] = dose: 200.0 mg/kg/injection, schedule: Q04DX003 (ip), vehicle: saline with Tween-80
[3] = dose: 400.0 mg/kg/injection, schedule: Q04DX003 (ip), vehicle: saline with Tween-80
[4] = dose: 100.0 mg/kg/injection, schedule: Q01DX009 (ip), vehicle: saline with Tween-80
[5] = dose: 200.0 mg/kg/injection, schedule: Q01DX009 (ip), vehicle: saline with Tween-80
[6] = dose: 400.0 mg/kg/injection, schedule: Q01DX009 (ip), vehicle: saline with Tween-80
[7] = dose: 100.0 mg/kg/injection, schedule: Q04DX002 (ip), vehicle: Klucel (hydroxypropylcellulose) (HPC)

Measured: T/C

c1ccc2c3c([nH]c2c1)C1CC2CC(C1)CC3C2
inactive: dose: 100.0 mg/kg/injection, schedule: Q04DX003 (ip), vehicle: alcohol 105 % of control | dose: 200.0 mg/kg/injection, schedule: Q04DX003 (ip), vehicle: alcohol 96 % of control | dose: 400.0 mg/kg/injection, schedule: Q04DX003 (ip), vehicle: alcohol 96 % of control

CC(=O)Nc1ccc2oc(=O)ccc2c1
inactive: [1] 98 % of control | [2] 105 % of control | [3] 98 % of control

CC(C)C/C=N\N=C(N)N
inactive: dose: 15.0 mg/kg/injection, schedule: Q01DX Z (ip), vehicle: saline 103 % of control | dose: 30.0 mg/kg/injection, schedule: Q01DX Z (ip), vehicle: saline 113 % of control | dose: 60.0 mg/kg/injection, schedule: Q01DX Z (ip), vehicle: saline 104 % of control and 90 % of control | dose: 60.0 mg/kg/injection, schedule: Q01DX Z (sc), vehicle: saline 117 % of control | dose: 120.0 mg/kg/injection, schedule: Q01DX Z (ip), vehicle: saline 103 % of control | dose: 120.0 mg/kg/injection, schedule: Q01DX Z (sc), vehicle: saline 110 % of control

O=C(NN(c1ccccc1)c1cccc2ccccc12)c1ccccc1
inactive: dose: 50.0 mg/kg/injection, schedule: Q01DX009 (ip), vehicle: Klucel (hydroxypropylcellulose) (HPC) 103 % of control | dose: 100.0 mg/kg/injection, schedule: Q01DX009 (ip), vehicle: Klucel (hydroxypropylcellulose) (HPC) 103 % of control | dose: 100.0 mg/kg/injection, schedule: Q04DX003 (ip), vehicle: Klucel (hydroxypropylcellulose) (HPC) 89 % of control | dose: 200.0 mg/kg/injection, schedule: Q01DX009 (ip), vehicle: Klucel (hydroxypropylcellulose) (HPC) 97 % of control | dose: 200.0 mg/kg/injection, schedule: Q04DX003 (ip), vehicle: Klucel (hydroxypropylcellulose) (HPC) 93 % of control | dose: 400.0 mg/kg/injection, schedule: Q01DX009 (ip), vehicle: Klucel (hydroxypropylcellulose) (HPC) 100 % of control | dose: 400.0 mg/kg/injection, schedule: Q04DX003 (ip), vehicle: Klucel (hydroxypropylcellulose) (HPC) 94 % of control

COC(=O)C1=C(C(=O)OC)C2CCC1C2
inactive: dose: 100.0 mg/kg/injection, schedule: Q01DX009 (ip), vehicle: other 103 % of control | dose: 200.0 mg/kg/injection, schedule: Q01DX009 (ip), vehicle: other 103 % of control | dose: 400.0 mg/kg/injection, schedule: Q01DX009 (ip), vehicle: other 98 % of control

O=C(O)/C(=C\c1ccccc1[N+](=O)[O-])c1ccccc1Cl
inactive: [4] 106 % of control | [5] 98 % of control | [6] 95 % of control

COC(=O)N1C(c2ccccc2)CS1(=O)=O (configuration not stated)
inactive: dose: 25.0 mg/kg/injection, schedule: Q04DX002 (ip), vehicle: Klucel (hydroxypropylcellulose) (HPC) 106 % of control | dose: 50.0 mg/kg/injection, schedule: Q04DX002 (ip), vehicle: Klucel (hydroxypropylcellulose) (HPC) 113 % of control | [7] 97 % of control and 109 % of control

CC1C(N2CCCCC2)N(C(=O)c2ccccc2)SC12c1ccccc1-c1ccccc12 (configuration not stated)
inactive: [7] 94 % of control | dose: 200.0 mg/kg/injection, schedule: Q04DX002 (ip), vehicle: Klucel (hydroxypropylcellulose) (HPC) 102 % of control | dose: 400.0 mg/kg/injection, schedule: Q04DX002 (ip), vehicle: Klucel (hydroxypropylcellulose) (HPC) 102 % of control

CC1(C)C(=NO)C(C)(C)C1=NO
inactive: dose: 12.5 mg/kg/injection, schedule: Q01DX009 (ip), vehicle: Klucel (hydroxypropylcellulose) (HPC) 105 % of control | dose: 12.5 mg/kg/injection, schedule: Q04DX003 (ip), vehicle: Klucel (hydroxypropylcellulose) (HPC) 108 % of control | dose: 25.0 mg/kg/injection, schedule: Q01DX009 (ip), vehicle: Klucel (hydroxypropylcellulose) (HPC) 106 % of control | dose: 50.0 mg/kg/injection, schedule: Q04DX003 (ip), vehicle: Klucel (hydroxypropylcellulose) (HPC) 104 % of control

CN(C)Cc1c[nH]c2ccsc12
inactive: [1] 98 % of control | [2] 87 % of control

COC(C(OC)N1CCOCC1)N1CCOCC1 (configuration not stated)
inactive: dose: 50.0 mg/kg/injection, schedule: Q01DX009 (ip), vehicle: saline 102 % of control | [4] 95 % of control | dose: 100.0 mg/kg/injection, schedule: Q01DX009 (ip), vehicle: saline 110 % of control | [1] 93 % of control | dose: 132.0 mg/kg/injection, schedule: Q01DX009 (ip), vehicle: saline with Tween-80 90 % of control | [5] 101 % of control and 97 % of control | [2] 98 % of control | dose: 300.0 mg/kg/injection, schedule: Q01DX009 (ip), vehicle: saline with Tween-80 99 % of control | [6] 89 % of control | [3] 94 % of control
